These results are taken from patent US12576135B2, “Compositions and methods for anti-TnMUC1 gold CAR t-cells” (Chimera Bioengineering, Inc., priority 2021, dated 2026).

Molecules are shown by their SMILES.

One assay relates to primary T-cells. Kind of assay: Rapamycin inhibition of Gold controlled nano-luciferase in anti-DLL3 CAR primary T-cells mixed with SHP-77 cells. It counts as cell-based. The conditions noted are these: Concurrent Rx and Delay Rx; 24, 48, 72 hours. From the text: A bicistronic vector with an anti-DLL3-CAR and nano-luceiferase under the control of an IFNg Gold element is made using the methods and materials described above. This bicistronic vector is transduced into primary T-cells, and transduced T-cells are obtained. When the transduced T-cells are mixed with SHP-77 cells that display the DLL3 antigen, the primary T-cells are activated and nano-luciferase is expressed.
The ability of rapamycin to inhibit the expression of nano-luciferase following activation of the primary T-cells was tested. Primary T-cells transduced with the bicistronic vector encoding the anti-DLL3 CAR and nano-luciferase were mixed with SHP-77 cells and then three treatment regimens were used. No rapamycin (NoRx), rapamycin added concurrently with the SHP-77 cells (Concurrent Rx), or rapamycin added 24 hours after SHP-77 cells was added (Delay Rx). New media was mixed with the cells every 24 hours. If the cells had received rapamycin in the media in the earlier time period, rapamycin was included with the media at subsequent media changes.
FIG. 22 normalizes the nano-luciferase activity to that of the NoRx sample. Levels of nano-luciferase were measured at 24 hours, 48 hours and 72 hours post mixing with SHP-77 cells.
For `CO[C@H]1C[C@@H]2CC[C@@H](C)[C@@](O)(O2)C(=O)C(=O)N2CCCC[C@H]2C(=O)O[C@H]([C@H](C)C[C@@H]2CC[C@@H](O)[C@H](OC)C2)CC(=O)[C@H](C)/C=C(\C)[C@@H](O)[C@@H](OC)C(=O)[C@H](C)C[C@H](C)/C=C/C=C/C=C/1C` [Rapamycin/sirolimus], the “expression of nano-luciferase normalized to NoRx” value is “reduced expression of nano-luciferase”.

The target in a further assay is mTORC1 (Homo sapiens, UniProt P42345).
Test: not given
The conditions noted are these: cited from earlier work.
As for `CO[C@H]1C[C@@H]2CC[C@@H](C)[C@@](O)(O2)C(=O)C(=O)N2CCCC[C@H]2C(=O)O[C@H]([C@H](C)C[C@@H]2CC[C@@H](OCCO)[C@H](OC)C2)CC(=O)[C@H](C)/C=C(\C)[C@@H](O)[C@@H](OC)C(=O)[C@H](C)C[C@H](C)/C=C/C=C/C=C/1C` [Everolimus], the IC50 – broadly, the concentration at which inhibition is half-maximal – is 1.8 to 2.6 nM.

Take `CNC(=O)Nc1ccc(-c2nc(N3CC4CCC(C3)O4)c3cnn(C4CCC5(CC4)OCCO5)c3n2)cc1` [WYE-125132]: the IC50 is 0.19 nM.

The subject of a further assay is PI3K.
Test: not given
The conditions noted are these: cited from earlier work.
Consider `COc1ccc(-c2ccc3c(N4CCOC[C@@H]4C)nc(N4CCOC[C@@H]4C)nc3n2)cc1CO` [AZD8055], for which the IC50 was 3590 nM.

Turning to `COc1ccc(-c2ccc3c(N4CCOCC4)nc(N4C[C@@H](C)O[C@@H](C)C4)nc3n2)cc1CO` [KU-0063794], the IC50 is greater than 10000 nM.

On to `Cn1c(=O)n(-c2ccc(C(C)(C)C#N)cc2)c2c3cc(-c4cnc5ccccc5c4)ccc3ncc21` [NVP-BEZ235], for which the IC50 is […].

With `CC(C)n1nc(-c2cccc(C(=O)NC3=NCCS3)c2)c2c(N)ncnc21` [PP30], the IC50 is […].

As for `CCC(=O)N1CCN(c2ccc(-n3c(=O)ccc4cnc5ccc(-c6cnc7ccccc7c6)cc5c43)cc2C(F)(F)F)CC1` [Torin 1], the concentration for half-maximal inhibition (IC50) was 250 nM.

With `Nc1ccc(-c2ccc3ncc4ccc(=O)n(-c5cccc(C(F)(F)F)c5)c4c3c2)cn1` [Torin 2], the IC50 was 4.68 nM.

With `CNC(=O)Nc1ccc(-c2nc(N3CC4CCC(C3)O4)c3cnn(C4CCC5(CC4)OCCO5)c3n2)cc1` [WYE-125132], the IC50 is 1180 nM.
